# Reference: PubChem BioAssay (NCI)
#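 1) Cells in 96-well plates. 2) Compound, 48 h, 5 concentrations. 3) Linear interpolation between surrounding doses. 4) Unreached endpoint = highest concentration. TGI: total growth inhibition.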 Where a SMILES comes first, the peptide text is derived from it. The star is where a group is joined. X36 = O=C(c1ccc(-c2ccc(Cl)cc2Cl)o1)*
# What was measured:
# Assay in all cases: NCI-60 cell line screen, 48 h
# HL-60(TB) leukemia = tested on: HL-60(TB) leukemia
# SR leukemia = tested on: SR leukemia
# PC-3 prostate = tested on: PC-3 prostate
# U251 CNS = tested on: U251 CNS
# HCT-15 colon = tested on: HCT-15 colon
# SNB-19 CNS = tested on: SNB-19 CNS
# HT29 colon = tested on: HT29 colon
# RXF 393 renal = tested on: RXF 393 renal
# NCI-H226 lung = tested on: NCI-H226 lung
# COLO 205 colon = tested on: COLO 205 colon
# NCI/ADR-RES ovarian = tested on: NCI/ADR-RES ovarian
# DU-145 prostate = tested on: DU-145 prostate
# CCRF-CEM leukemia = tested on: CCRF-CEM leukemia
Structure (SMILES),TGI (HL-60(TB) leukemia) [µM],TGI (SR leukemia) [µM],TGI (PC-3 prostate) [µM],TGI (U251 CNS) [µM],TGI (HCT-15 colon) [µM],TGI (SNB-19 CNS) [µM],TGI (HT29 colon) [µM],TGI (RXF 393 renal) [µM],TGI (NCI-H226 lung) [µM],TGI (COLO 205 colon) [µM],TGI (NCI/ADR-RES ovarian) [µM],TGI (DU-145 prostate) [µM],TGI (CCRF-CEM leukemia) [µM]
Cc1ccc(-c2cc(N)n(-c3nc4c(c(=O)n(C)c(=O)n4C)n3C)n2)cc1,> 100,> 100,> 100,> 100,> 100,> 100,> 100,> 100,> 100,> 100,> 100,> 100,> 100
CC(=O)O[C@H]1CC[C@@]2(C)C(=CC[C@H]3[C@@H]4C[C@H](N5CCCC5)[C@H](OC(C)=O)[C@@]4(C)CC[C@@H]32)C1,> 80.9,> 100,> 100,> 100,> 100,> 100,69.4,> 100,> 100,> 100,> 100,> 100,> 100
Cc1ccc2c(=O)cc(-c3cccs3)[nH]c2n1,25.5,> 100,> 95.8,> 100,> 100,82.2,> 70.9,> 62.6,63.7,25.2,11.9,> 100,> 87.6
Cc1ccc2c(c1)[nH]c1cc(C(F)(F)F)ccc1[p+]2=O (configuration not stated),56.2,> 100,73.5,> 100,> 100,76.7,> 100,> 100,70.5,31.5,> 100,> 100,50.2
CCC(C)C(NC(=O)CNC(=O)C(Cc1ccccc1)NC(=O)C1CCCN1C(=O)c1ccc(-c2ccc(Cl)cc2Cl)o1)C(=O)OC (configuration not stated) (X36-PFGI-OMe; configuration not given here),> 100,95.6,49.1,93.5,> 100,> 100,> 100,> 100,> 100,> 100,> 100,> 100,> 100
COc1ccc(Nc2nc(NS(=O)(=O)c3cc(C)c(Cl)cc3S)n[nH]2)cc1,> 100,> 100,> 100,> 100,> 100,> 100,> 100,> 100,> 100,> 100,> 100,> 100,> 100
N#C/C(=C\n1ccc(=O)[nH]c1=S)C(N)=O,> 100,> 100,> 100,> 100,> 100,> 100,> 100,> 100,> 100,> 100,> 100,> 100,> 100
O=C(O)c1ccc(S(=O)(=O)c2ccccc2[N+](=O)[O-])cc1,> 10,> 10,> 10,> 10,> 10,> 10,> 10,> 10,> 10,> 10,> 10,> 10,> 10
O=c1oc2ccccc2c(Nc2ccc3c(c2)Oc2ccccc2O3)c1[N+](=O)[O-],> 100,> 100,32.5,30,> 100,40.4,> 100,34.6,48.1,> 100,69.4,90.1,> 100
